Patent US20230054194A1, “Methods of Treating Cancer” (ARIAGEN, INC., priority 2018, published 2023)

Experiments:
[1] = system: CT26; assay: CT-26 subcutaneous syngeneic colon cancer mouse model (Study 4), tumor growth inhibition; format: in vivo, mouse (BALB/C); settings: CT-26 model, i.p.; ARI compounds 160 mg/kg QD × 15 doses, Anti-PD-1 10 BIW × 5 doses; study end day Day 23
Protocol: (§1) In this example, the in vivo anti-tumor efficacy of ARI-001, ARI-002, ARI-003, and ARI-143 and their combinations with an anti-PD-1 antibody was evaluated using a panel of twelve subcutaneous syngeneic mouse tumor models.
(§2) Eleven subcutaneous syngeneic mouse tumor models were generated by innoculating female BALB/C or C57BL/6 mice with cancer cells at their right lower or right front flank followed by randomization as detailed in Table 4 below.
(§3) A solution of a rat monoclonal anti-mouse PD-1 antibody (isotype IgG2a, κ) at a concentration of 6.61 mg/ml was obtained from BioXcell (InVivoMAb anti-mouse PD-1 (CD279), Clone RMP1-14, Cat #BE0146)) and store at 4° C. The antibody solution was diluted with PBS to obtain a 1 mg/ml dosing solution.
(§4) ARI-001, ARI-002, and ARI-003 powder was stored at −20° C. The powder of each compound was dissolved in DMSO to obtain dosing solutions at 106.7, 80, and 53.33 mg/ml for administration to mice at 160, 120, and 80 mg/kg, respectively. ARI-143 was similarly prepared.
(§5) Twelve studies using the twelve subcutaneous syngeneic mouse tumor models were performed. In each study, 80 mice were enrolled and randomly allocated to eight different study groups, with 10 mice in each study group. The mean tumor size at randomization was approximately 80-120 mm^3 (around 100 mm^3). Randomization was performed based on “Matched distribution” randomization method (StudyDirector™ software, version 3.1.399.19). […] All the drugs and vehicle controls were injected to the mice intraperitoneally.
(§6) After tumor cell inoculation, the animals were checked daily for morbidity and mortality. At the time of routine monitoring, the animals were checked for any effects of tumor growth and treatments on behavior such as mobility, food and water consumption, body weight gain/loss (body weights were measured twice or three times per week after randomization), and any other abnormalities. Mortality and observed clinical signs were recorded for individual animals. Tumor volumes were measured twice or three times weekly after randomization in two dimensions using a caliper, and the volume was expressed in mm^3 using the formula: […]
(§7) where V is tumor volume, L is tumor length (the longest tumor dimension) and W is tumor width (the longest tumor dimension perpendicular to L).
(§8) The study was terminated when the mean tumor volume (MTV) in the vehicle group reached a value of 2,000 mm^3. Tumor growth inhibition (TGI) is an indication of antitumor activity, and expressed as: […]
(§9) where T and C are the MTV (or weight) of the treated and control groups, respectively, on a given day. Statistical analysis of the difference in MTV among the groups was conducted using the data collected on the day when the MTV of the vehicle group reached the humane endpoints, so that TGI could be derived for all or most mice enrolled in the study.
(§10) Statistical analysis of differences in MTV among the groups was conducted by Independent-Samples T Test using the data collected. All data were analyzed with SPSS (Statistical Product and Service Solutions) version 18.0 (IBM, Armonk, N.Y., U.S.). P-values were rounded to three decimal places, with the exception that raw P-values less than 0.001 were stated as P<0.001. All tests were two-sided. P<0.05 was considered to be statistically significant.
FIG. 63 is a graph showing the mean tumor volume on different study days in the study groups as indicated according to Study 4 (CT-26). The study end day was Day 23.

[2] = system: RM-1; assay: RM-1 subcutaneous syngeneic prostate cancer mouse model (Study 7), tumor growth inhibition; format: in vivo, mouse (C57BL/6); settings: RM-1 model, study end day Day 19
Protocol: as §1, §2, §3, §4, §5, §6, §7, §8, §9, §10
FIG. 66 is a graph showing the mean tumor volume on different study days in the study groups as indicated according to Study 7 (RM-1). The study end day was Day 19.

[3] = system: Renca; assay: Renca subcutaneous syngeneic kidney cancer mouse model (Study 8), tumor growth inhibition; format: in vivo, mouse (BALB/C)
Protocol: as §1, §2, §3, §4, §5, §6, §7, §8, §9, §10
FIG. 67 is a graph showing the mean tumor volume on different study days in the study groups as indicated according to Study 8 (Renca). The study end day was Day 28.

[4] = system: LL/2; assay: LL/2 subcutaneous syngeneic lung cancer mouse model (Study 6), tumor growth inhibition; format: in vivo, mouse (C57BL/6)
Protocol: as §1, §2, §3, §4, §5, §6, §7, §8, §9, §10
FIG. 65 is a graph showing the mean tumor volume on different study days in the study groups as indicated according to Study 6 (LL/2). The study end day was Day 32.

[5] = system: Pan02; assay: Pan02 subcutaneous syngeneic pancreatic cancer mouse model (Study 3), tumor growth inhibition; format: in vivo, mouse (C57BL/6)
Protocol: as §1, §2, §3, §4, §5, §6, §7, §8, §9, §10
FIG. 62 is a graph showing the mean tumor volume on different study days in the study groups as indicated according to Study 3 (Pan02). The study end day was Day 32.

[6] = system: EMT-6; assay: EMT-6 subcutaneous syngeneic breast cancer mouse model (Study 2 and Study 12), tumor growth inhibition; format: in vivo, mouse (BALB/C); settings: EMT-6 syngeneic breast cancer model
Protocol: as §1, §2, §3, §4, §5, §6, §7, §8, §9, §10
FIG. 61 is a graph showing the mean tumor volume on different study days in the study groups as indicated according to Study 2 (EMT-6). The study end day was Day 27.

[7] = system: A20; assay: A20 subcutaneous syngeneic lymphoma mouse model (Study 5), tumor growth inhibition; format: in vivo, mouse (BALB/C); settings: A20 model, i.p.; ARI compounds 160 mg/kg QD × 14 doses, Anti-PD-1 10 BIW × 4 doses; study end day Day 26
Protocol: as §1, §2, §3, §4, §5, §6, §7, §8, §9, §10
FIG. 64 is a graph showing the mean tumor volume on different study days in the study groups as indicated according to Study 5 (A20). The study end day was Day 26.

[8] = system: MC38; assay: MC38 subcutaneous syngeneic colon cancer mouse model (Study 1), tumor growth inhibition; format: in vivo, mouse (C57BL/6)
Protocol: as §1, §2, §3, §4, §5, §6, §7, §8, §9, §10
FIG. 60 is a graph showing the mean tumor volume on different study days in the study groups as indicated according to Study 1 (MC38). The study end day was Day 26.

[9] = system: H22; assay: H22 subcutaneous syngeneic liver cancer mouse model (Study 11), tumor growth inhibition; format: in vivo, mouse (BALB/C)
Protocol: as §1, §2, §3, §4, §5, §6, §7, §8, §9, §10
FIG. 70 is a graph showing the mean tumor volume on different study days in the study groups as indicated according to Study 11 (H22). The study end day was Day 18.

[10] = system: Hepa1-6; assay: Hepa1-6 subcutaneous syngeneic liver cancer mouse model (Study 9), tumor growth inhibition; format: in vivo, mouse (C57BL/6)
Protocol: as §1, §2, §3, §4, §5, §6, §7, §8, §9, §10
FIG. 68 is a graph showing the mean tumor volume on different study days in the study groups as indicated according to Study 9 (Hepal-6). The study end day was Day 26.

[11] = system: B16F10; assay: B16F10 subcutaneous syngeneic melanoma mouse model (Study 10), tumor growth inhibition; format: in vivo, mouse (C57BL/6)
Protocol: as §1, §2, §3, §4, §5, §6, §7, §8, §9, §10
FIG. 69 is a graph showing the mean tumor volume on different study days in the study groups as indicated according to Study 10 (B16F10). The study end day was Day 19.

[12] = Pan02 model, i.p., ARI compounds 160 mg/kg QD × 28 doses, Anti-PD-1 10 BIW × 8 doses, study end day Day 32
[13] = Pan02 syngeneic pancreatic cancer model
[14] = MC38 model, i.p., ARI compounds 160 mg/kg QD × 17 doses, Anti-PD-1 10 BIW × 5 doses, study end day Day 26

SMILES: NC(=O)c1csc(C(=O)c2c[nH]c3ccccc23)n1 [ARI-003]
- TGI(%) [1]: 64%
- Tumor size (Mean ± SEM) [1]: 836.51 ± 110.61 mm^3
- Tumor size ([2]; Mean ± SEM, in mm³): 1703.05 ± 39.79
- TGI(%) [2]: 43%
- Tumor size ([3]; Renca model, Mean ± SEM, study end day Day 28, in mm³): 1240.04 ± 90.09
- TGI(%) ([3]; Renca model, study end day Day 28): 42%
- anti-tumor potency of anti-PD-1 antibody combined with the compound, compared to the antibody alone ([3]; Renca syngeneic kidney cancer model): statistically significant increase
- Tumor size ([4]; LL/2 model, Mean ± SEM, study end day Day 32, in mm³): 839.79 ± 99.43
- TGI(%) ([4]; LL/2 model, study end day Day 32): 62%
- anti-tumor potency of anti-PD-1 antibody combined with the compound, compared to the antibody alone or the vehicle ([4]; LL/2 syngeneic lung cancer model): statistically significant increase
- TGI(%) [5, 12]: 62%
- Tumor size (Mean ± SEM) [5, 12]: 340.16 ± 49.76 mm^3
- anti-tumor potency of anti-PD-1 antibody combined with the compound, compared to the antibody alone [5, 13]: statistically significant increase
- anti-tumor potency of the compound combined with anti-PD-1 antibody, compared to being used alone [5, 13]: statistically significant increase
- anti-tumor potency of anti-PD-1 antibody combined with the compound, compared to the antibody alone or the vehicle [6]: statistically significant increase
- TGI(%) [7]: 54%
- Tumor size (Mean ± SEM) [7]: 1206.83 ± 121.06 mm^3
- TGI(%) [8, 14]: 35%
- Tumor size (Mean ± SEM) [8, 14]: 1691.11 ± 123.57 mm^3
- anti-tumor potency of anti-PD-1 antibody combined with the compound, compared to the antibody alone or the vehicle ([8]; MC38 syngeneic colon cancer model): statistically significant increase
- Tumor size ([9]; H22 model, Mean ± SEM, study end day Day 18, in mm³): 1547.54 ± 100.51
- TGI(%) ([9]; H22 model, study end day Day 18): 31%
- anti-tumor potency of the compound combined with anti-PD-1 antibody, compared to being used alone ([9]; H22 syngeneic liver cancer model): statistically significant increase
- Tumor size ([10]; Hepa1-6 model, Mean ± SEM, study end day Day 26, in mm³): 1251.31 ± 158.72
- TGI(%) ([10]; Hepa1-6 model, study end day Day 26): 23%
- anti-tumor potency of the compound combined with anti-PD-1 antibody, compared to being used alone ([10]; Hepa1-6 syngeneic liver cancer model): statistically significant increase
- Tumor size ([11]; B16F10 model, Mean ± SEM, study end day Day 19, in mm³): 2234.18 ± 248.14
- TGI(%) ([11]; B16F10 model, study end day Day 19): 24%
- anti-tumor potency of anti-PD-1 antibody combined with the compound, compared to the antibody alone or the vehicle ([11]; B16F10 syngeneic melanoma model): statistically significant increase
